The target in the test is Serine/threonine-protein kinase B-raf [V600E] (Homo sapiens, UniProt P15056, V600E). Put plainly: Raf/Mek Amplified Luminescence Proximity Homogeneous Assay. Particulars: pH 7.5. The source says: Raf/Mek amplified luminescence proximity homogeneous assay.
Chain of Serine/threonine-protein kinase B-raf [V600E] (P15056 2-766 V600E limits assumed): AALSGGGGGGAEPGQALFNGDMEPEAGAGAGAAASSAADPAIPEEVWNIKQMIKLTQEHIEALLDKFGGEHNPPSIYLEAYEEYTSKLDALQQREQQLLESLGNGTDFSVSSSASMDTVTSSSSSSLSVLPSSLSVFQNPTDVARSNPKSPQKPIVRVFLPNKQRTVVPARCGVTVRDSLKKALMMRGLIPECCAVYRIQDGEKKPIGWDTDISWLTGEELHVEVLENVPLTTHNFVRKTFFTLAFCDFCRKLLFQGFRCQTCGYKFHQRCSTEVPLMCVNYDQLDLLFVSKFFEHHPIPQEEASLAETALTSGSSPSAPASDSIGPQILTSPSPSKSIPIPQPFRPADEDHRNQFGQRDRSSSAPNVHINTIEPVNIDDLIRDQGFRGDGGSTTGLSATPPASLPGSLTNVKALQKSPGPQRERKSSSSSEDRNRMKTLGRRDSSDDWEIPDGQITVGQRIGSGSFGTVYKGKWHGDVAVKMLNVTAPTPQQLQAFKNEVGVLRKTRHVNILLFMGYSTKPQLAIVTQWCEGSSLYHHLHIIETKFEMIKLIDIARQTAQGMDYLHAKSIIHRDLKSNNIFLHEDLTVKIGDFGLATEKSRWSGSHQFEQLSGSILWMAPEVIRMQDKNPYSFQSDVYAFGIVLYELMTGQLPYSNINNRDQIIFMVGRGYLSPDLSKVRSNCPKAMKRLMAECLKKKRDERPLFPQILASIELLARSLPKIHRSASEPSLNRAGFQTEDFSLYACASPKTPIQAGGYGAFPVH

In general, IC50 refers to the midpoint of a concentration-inhibition curve. A high value points to a need for much substance. For `COC(=O)N[C@@H](C)CNc1nccc(-c2nc(C(C)(C)C)[nH]c2-c2cc(Cl)cc(NS(=O)(=O)C(F)(F)F)c2)n1` [US8563553, 52], half-maximal inhibition (IC50) required 235 nM.

Source of the values: BindingDB's records for patent US8563553 (Novartis, 2013).
